Values of other authors, collected in US8697633B2, “Dissolution of arterial plaque” (AtheraNova Operations, Inc., priority 2005, dated 2014).

Legend:
atherosclerotic plaque [1] = conditions: 40 mg/day
atherosclerotic plaque [2] = conditions: dietary HDCA, relative to mice not provided HDCA

Compound	modulation of LDL, HDL, and triglyceride levels (atherosclerotic plaque [1])	reduction of normalized total atheroma volume (atherosclerotic plaque [1]; after 2 years, SD=11.1) [%]	reduction of plaque volume in the most diseased segments of vessels (atherosclerotic plaque [1]; after 2 years, SD=13.7) [%]	rate of formation of atherosclerotic plaque (atherosclerotic plaque [2])
CC(C)c1nc(N(C)S(C)(=O)=O)nc(-c2ccc(F)cc2)c1/C=C/[C@@H](O)C[C@@H](O)CC(=O)O [rosuvastatin]	particularly effective	6.7	8.5	–
C[C@H](CCC(=O)O)[C@H]1CC[C@H]2[C@@H]3C[C@H](O)[C@@H]4C[C@H](O)CC[C@]4(C)[C@H]3CC[C@]12C [HDCA, hyodeoxycholic acid]	–	–	–	reduced rate of formation of atherosclerotic plaque
